From ChEMBL document CHEMBL1201862, “PubChem BioAssay data set” (2004)
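These data come from cells grown in 96-well plates and exposed to compound for 48 hours at five concentrations. GI50 is the concentration that inhibits growth by half.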 The source made the active and inactive calls. Cut-off read from the data, not from the text of the source: active = GI50 up to about 1.1 µM and inactive = higher.

Assays:
Assay in all cases: inhibition of tumour cell growth, NCI panel, 48 h
SK-MEL-2 = test system: SK-MEL-2
M14 = test system: M14
MDA-MB-231 = test system: MDA-MB-231
CAKI-1 = test system: CAKI-1
HCT-116 = test system: HCT-116
MDA-N = test system: MDA-N
IGROV-1 = test system: IGROV-1
SF-539 = test system: SF-539
DU-145 = test system: DU-145
SN12C = test system: SN12C
HOP-62 = test system: HOP-62
SF-268 = test system: SF-268
OVCAR-8 = test system: OVCAR-8
COLO 205 = test system: COLO 205
EKVX = test system: EKVX
NCI-H226 = test system: NCI-H226
Malme-3M = test system: Malme-3M
SF-295 = test system: SF-295
LOX IMVI = test system: LOX IMVI
TK-10 = test system: TK-10

Measured: GI50

C/C(CC1SCCCS1)=C(/C)CC1SCCCS1
inactive: SK-MEL-2 > 100 µM | M14 > 100 µM | MDA-MB-231 > 100 µM | CAKI-1 > 100 µM | HCT-116 > 100 µM | MDA-N > 100 µM | IGROV-1 > 100 µM | SF-539 > 100 µM | DU-145 > 100 µM | SN12C > 100 µM | HOP-62 > 100 µM | SF-268 > 100 µM | OVCAR-8 > 100 µM | COLO 205 > 100 µM | EKVX > 100 µM | NCI-H226 > 100 µM | Malme-3M > 100 µM | SF-295 > 100 µM | LOX IMVI > 100 µM | TK-10 > 100 µM

O=c1c(C(c2ccc3ccccc3c2)c2c(O)oc3ccccc3c2=O)c(O)oc2ccccc12
inactive: SK-MEL-2 34.5 µM | M14 25.9 µM | MDA-MB-231 22.6 µM | CAKI-1 22.9 µM | HCT-116 35 µM | MDA-N 27.4 µM | IGROV-1 30.8 µM | SF-539 25.5 µM | DU-145 40.7 µM | SN12C 20.6 µM | HOP-62 39.3 µM | SF-268 21.4 µM | OVCAR-8 16.1 µM | COLO 205 30.5 µM | EKVX 31.9 µM | NCI-H226 26.5 µM | Malme-3M 17.7 µM | SF-295 50.4 µM | LOX IMVI 34.6 µM | TK-10 61.8 µM

COc1ccc(C(=O)c2sc(Nc3ccc(Cl)cc3)nc2N)cc1
inactive: SK-MEL-2 17 µM | M14 > 63.8 µM | MDA-MB-231 26.3 µM | CAKI-1 16.4 µM | HCT-116 7.66 µM | MDA-N 2.37 µM | IGROV-1 5.93 µM | SF-539 14 µM | DU-145 25 µM | SN12C 21.6 µM | HOP-62 7.91 µM | SF-268 8.15 µM | OVCAR-8 25.9 µM | COLO 205 > 21.2 µM | EKVX 32.8 µM | NCI-H226 29.6 µM | Malme-3M 12.3 µM | SF-295 11.1 µM | LOX IMVI 9.42 µM | TK-10 10.1 µM

C=C1C(=O)C=C2C=C3C(=O)C(C)(C)C[C@]3(O)C12C (stereo not given in full)
inactive: SK-MEL-2 17.8 µM | M14 1.73 µM | MDA-MB-231 2.36 µM | CAKI-1 1.82 µM | HCT-116 3.97 µM | MDA-N 3.76 µM | IGROV-1 18 µM | SF-539 > 43.2 µM | DU-145 18.8 µM | SN12C 9.4 µM | HOP-62 22.5 µM | SF-268 5.65 µM | OVCAR-8 8.57 µM | COLO 205 1.5 µM | EKVX 16.1 µM | NCI-H226 22.1 µM | Malme-3M 1.83 µM | SF-295 19 µM | LOX IMVI 5.14 µM | TK-10 1.84 µM

N=c1oc2ccccc2cc1C(=O)NC12CC3CC(CC(C3)C1)C2
inactive: SK-MEL-2 14 µM | M14 25.7 µM | MDA-MB-231 20.1 µM | CAKI-1 7.52 µM | HCT-116 15.6 µM | MDA-N 26.2 µM | IGROV-1 16.5 µM | SF-539 16.9 µM | DU-145 13.2 µM | SN12C 28.2 µM | HOP-62 22.6 µM | SF-268 34 µM | OVCAR-8 30.4 µM | COLO 205 14.1 µM | EKVX 21.9 µM | NCI-H226 24.2 µM | Malme-3M 32.1 µM | SF-295 20.6 µM | LOX IMVI 13.8 µM | TK-10 16 µM

CN(C)CCCC12CCCCC1=Nc1ccccc12 (stereo not given)
inactive: SK-MEL-2 > 100 µM | M14 > 100 µM | MDA-MB-231 > 100 µM | CAKI-1 > 100 µM | HCT-116 > 100 µM | MDA-N > 100 µM | IGROV-1 > 100 µM | SF-539 > 100 µM | DU-145 > 100 µM | SN12C > 100 µM | HOP-62 > 100 µM | SF-268 > 100 µM | OVCAR-8 > 100 µM | COLO 205 48.2 µM | EKVX > 100 µM | NCI-H226 > 100 µM | Malme-3M > 100 µM | SF-295 > 100 µM | LOX IMVI > 100 µM | TK-10 > 100 µM

COC(=O)C1C(OS(=O)(=O)O)CCC2CN3CCc4c([nH]c5ccccc45)C3CC21 (stereo not given)
inactive: SK-MEL-2 > 100 µM | M14 > 100 µM | MDA-MB-231 > 100 µM | CAKI-1 > 100 µM | HCT-116 > 100 µM | MDA-N > 100 µM | IGROV-1 > 100 µM | SF-539 > 100 µM | DU-145 > 100 µM | SN12C > 100 µM | HOP-62 > 100 µM | SF-268 > 100 µM | OVCAR-8 > 100 µM | COLO 205 > 100 µM | EKVX > 100 µM | NCI-H226 > 100 µM | Malme-3M > 100 µM | SF-295 > 100 µM | LOX IMVI > 100 µM | TK-10 > 100 µM
